This passage reports hygroscopicity, stability and thermodynamic stability results from patent US8143409B2, “Crystalline form of rabeprazole sodium” (Dipharma Francis S.R.L., priority 2006, dated 2012).

For data set [1] the following is noted: isomorphic forms of EP 1674463; makes handling and storing easy; cited from earlier work.
Data set [2] can be described thus: Stability of the crystalline hydrate form at room temperature. The note with it: compared with hydrated crystalline forms alpha and beta. It counts as physicochemical.
Data set [3] is described as follows: Thermodynamic stability by comparing DSC thermograms. Type of data set: physicochemical. The settings on record: compared with known hydrate forms α and β, by comparing the respective DSC thermograms. The method, then:
DSC thermograms were recorded with a Mettler-Toledo differential scansion calorimeter DSC 822, under the following operative conditions: aluminium capsules, 30-400° C. range with increase of 10° C./min, under nitrogen as purging gas (80 ml/min).
In general terms: DSC measures the heat that a sample takes up or gives off during a temperature scan.

As to `COCCCOc1ccnc(C[S+]([O-])c2nc3ccccc3[n-]2)c1C.[Na+]` (stereo not drawn) [alpha], the hygroscopicity result in data set [1] was “low hygroscopicity”.
As for `COCCCOc1ccnc(C[S+]([O-])c2nc3ccccc3[n-]2)c1C.[Na+]` (stereo not drawn) [Form γ, 2-[[[4-(3-methoxypropoxy)-3-methyl-2-pyridinyl]-methyl]sulfinyl]-1H-benzylimidazole sodium salt], the stability result in data set [2] is listed as “more stable at room temperature”. For the same compound, the thermodynamic stability result in data set [3] was “thermodynamically more stable than the known hydrate forms α and β”.
